Like-named read-outs stand apart in the source and are kept apart here.
Tests used:
ec302 (TEM-10) [1] = experiment: Aztreonam potentiation (MPC@4), ec302; assay type: cell-based; conditions: BLI with aztreonam at 4 μg/mL
KP1010 (SHV-12) [2] = experiment: Tigemonam potentiation (MPC@4), KP1010; assay type: cell-based
ECL1002 [3] = experiment: Aztreonam potentiation (MPC@4), ECL1002; assay type: cell-based; conditions: BLI with aztreonam at 4 μg/mL
KP1086 (OXA-48) = experiment: Biapenem potentiation (MPC@1), KP1086; conditions: BLI with biapenem at 1 μg/mL
SHV-12 = SHV-12 (Klebsiella pneumoniae, UniProt P0AD64, E235K/G234S/L31Q); experiment: Ki, nitrocefin cleavage by purified enzyme, SHV-12; assay type: biochemical; conditions: nitrocefin reporter substrate; read-out: Ki (SHV-12, NCF)
SHV-12, sequence (P0AD64 22-286 L31Q/G234S/E235K): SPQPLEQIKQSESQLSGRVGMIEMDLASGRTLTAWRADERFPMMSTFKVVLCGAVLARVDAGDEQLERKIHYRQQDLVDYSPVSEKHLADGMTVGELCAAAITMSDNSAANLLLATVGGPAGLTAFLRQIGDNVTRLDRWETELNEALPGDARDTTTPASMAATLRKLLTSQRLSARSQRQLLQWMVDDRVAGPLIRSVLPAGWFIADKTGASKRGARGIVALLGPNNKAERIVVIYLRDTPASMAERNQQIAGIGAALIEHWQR
Summary of the method: (§1)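 10 min RT preincubation, enzyme with inhibitor series in reaction buffer. Substrate nitrocefin; kinetic read 490 nm, 10 sec intervals, 10 min total.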

ec308 (SHV-5) [4] = experiment: Tigemonam potentiation (MPC@4), ec308; assay type: cell-based
CTX-M-14 = CTX-M-14 (Escherichia coli, UniProt Q9L5C7); experiment: Ki, nitrocefin cleavage by purified enzyme, CTX-M-14; assay type: biochemical; conditions: nitrocefin reporter substrate; read-out: Ki (CTX-M-14, NCF)
CTX-M-14, sequence (Q9L5C7 29-291): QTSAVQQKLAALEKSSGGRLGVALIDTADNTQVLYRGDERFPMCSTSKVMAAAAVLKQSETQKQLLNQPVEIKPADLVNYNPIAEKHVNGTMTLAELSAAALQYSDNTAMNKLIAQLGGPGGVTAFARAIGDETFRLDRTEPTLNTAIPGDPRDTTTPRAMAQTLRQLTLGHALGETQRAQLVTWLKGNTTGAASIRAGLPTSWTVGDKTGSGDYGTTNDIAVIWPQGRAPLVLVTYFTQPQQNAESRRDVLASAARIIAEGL
Summary of the method: as §1

[5] = Monomer content of pH adjusted aqueous solutions (LC-UV); assay type: physicochemical; conditions: pH adjusted to 7.6 to 8, LC-UV; for % Monomer in 1 mg/mL salt solution: 1 mg/mL aqueous salt solution
Summary of the method: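 Aqueous solutions at 1.00, 10.0 or 100 mg/mL (active fraction) brought to pH 7.6–8 with acid or base, compound fully dissolved. Injected within half an hour of preparation onto C18 reversed-phase LC (0.1% TFA water / 0.085% TFA methanol gradient); UV detection at 220, 254 and 300 nm.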

ec302 (TEM-10) [6] = experiment: Tigemonam potentiation (MPC@4), ec302; assay type: cell-based
KP1005 (CTX-M-14) [7] = experiment: Tigemonam potentiation (MPC@4), KP1005; assay type: cell-based; conditions: BLI with tigemonam at 4 μg/mL
KP1009 (CTX-M-15) [8] = experiment: Tigemonam potentiation (MPC@4), KP1009; assay type: cell-based; conditions: BLI with tigemonam at 4 μg/mL
ECL1002 [9] = experiment: Tigemonam potentiation (MPC@4), ECL1002; assay type: cell-based; conditions: BLI with tigemonam at 4 μg/mL
KPC-2 = KPC-2 (Klebsiella pneumoniae, UniProt Q9F663); experiment: Ki, nitrocefin cleavage by purified enzyme, KPC-2; assay type: biochemical; conditions: nitrocefin reporter substrate; read-out: Ki (KPC-2, NCF)
KPC-2, sequence (Q9F663 25-293, looked up, species assumed): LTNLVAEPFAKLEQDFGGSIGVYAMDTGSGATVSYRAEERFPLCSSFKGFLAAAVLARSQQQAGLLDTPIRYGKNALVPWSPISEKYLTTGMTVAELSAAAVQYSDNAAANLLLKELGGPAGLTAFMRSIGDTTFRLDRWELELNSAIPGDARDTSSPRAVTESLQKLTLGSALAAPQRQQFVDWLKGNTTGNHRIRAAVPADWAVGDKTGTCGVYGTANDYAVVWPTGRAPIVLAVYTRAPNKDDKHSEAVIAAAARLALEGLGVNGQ
Summary of the method: as §1

KP1004 (KPC-2) [10] = experiment: Biapenem potentiation (MPC@1), KP1004; conditions: BLI with biapenem at 1 μg/mL
P99 = P99 (Enterobacter cloacae, UniProt P05364); experiment: Ki, nitrocefin cleavage by purified enzyme, P99; assay type: biochemical; conditions: nitrocefin reporter substrate; read-out: Ki (P99, NCF)
P99, sequence (P05364 21-381): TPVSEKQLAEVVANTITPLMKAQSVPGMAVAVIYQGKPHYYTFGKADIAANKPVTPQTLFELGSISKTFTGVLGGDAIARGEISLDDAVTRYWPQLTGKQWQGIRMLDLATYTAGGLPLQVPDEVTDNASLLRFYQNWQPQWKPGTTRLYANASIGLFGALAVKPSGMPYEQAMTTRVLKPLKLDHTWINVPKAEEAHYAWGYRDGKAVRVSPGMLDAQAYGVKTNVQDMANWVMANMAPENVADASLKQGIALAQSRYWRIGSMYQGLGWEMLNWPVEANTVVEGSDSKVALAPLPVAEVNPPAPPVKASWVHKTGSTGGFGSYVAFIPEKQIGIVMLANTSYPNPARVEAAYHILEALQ
Summary of the method: as §1

OXA-48 = OXA-48 (Klebsiella pneumoniae, UniProt Q6XEC0); experiment: Ki, nitrocefin cleavage by purified enzyme, OXA-48; assay type: biochemical; conditions: nitrocefin reporter substrate; read-out: Ki (OXA-48, NCF)
OXA-48, sequence (Q6XEC0 23-265, looked up, species assumed): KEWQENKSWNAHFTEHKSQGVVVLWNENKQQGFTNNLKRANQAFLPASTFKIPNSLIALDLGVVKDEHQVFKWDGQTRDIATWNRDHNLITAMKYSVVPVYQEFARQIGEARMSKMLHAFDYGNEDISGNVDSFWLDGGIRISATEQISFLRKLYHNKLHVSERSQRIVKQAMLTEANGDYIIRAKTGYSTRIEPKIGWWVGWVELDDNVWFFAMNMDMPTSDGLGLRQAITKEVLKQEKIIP
Summary of the method: as §1

[11] = Intravenous pharmacokinetics; assay type: in vivo; conditions: rat, plasma; rats, 20 mg/kg, intravenous infusion over 0.5 hours; read-out: Free Cl (converted)
Method: Rats (n=3 per compound) were administered by a single infusion. Intravenous doses were infused over 0.5 hours via an indwelling femoral vein cannula. […] (˜0.3 mL) samples were collected from each rat at designated time points up to 24 hours. Blood samples were centrifuged within 5 min of collection at 12000 g for 5 min to obtain plasma. The plasma samples were stored at −80° C. until analyzed. Data were analyzed using WinNonlin. The doses of all compounds tested were 20 mg/kg.

EC1010 (CMY-6) [12] = experiment: Tigemonam potentiation (MPC@4), EC1010; assay type: cell-based; conditions: BLI with tigemonam at 4 μg/mL
KP1004 (KPC-2) [13] = experiment: Aztreonam potentiation (MPC@4), KP1004; assay type: cell-based; conditions: BLI with aztreonam at 4 μg/mL
KP1005 (CTX-M-14) [14] = experiment: Aztreonam potentiation (MPC@4), KP1005; assay type: cell-based; conditions: BLI with aztreonam at 4 μg/mL
EC1010 (CMY-6) [15] = experiment: organism not typed; assay type: cell-based
Pa AmpC = Pa AmpC (Pseudomonas aeruginosa, UniProt P24735); experiment: Ki, nitrocefin cleavage by purified enzyme, Pa AmpC; assay type: biochemical; conditions: nitrocefin reporter substrate; read-out: Ki (Pa AmpC, NCF)
Pa AmpC, sequence (P24735 27-397): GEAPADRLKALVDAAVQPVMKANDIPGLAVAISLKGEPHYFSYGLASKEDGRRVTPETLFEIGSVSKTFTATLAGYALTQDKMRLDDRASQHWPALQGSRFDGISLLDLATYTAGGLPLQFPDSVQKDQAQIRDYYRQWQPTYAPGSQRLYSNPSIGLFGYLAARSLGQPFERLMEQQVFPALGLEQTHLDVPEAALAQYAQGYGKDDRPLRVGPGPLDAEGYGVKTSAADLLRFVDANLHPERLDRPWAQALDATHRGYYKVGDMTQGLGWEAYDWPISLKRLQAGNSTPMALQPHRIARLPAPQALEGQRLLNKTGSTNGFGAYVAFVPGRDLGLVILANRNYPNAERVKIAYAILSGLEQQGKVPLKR
Summary of the method: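 Nitrocefin hydrolysis by purified β-lactamase is followed at 490 nm every 10 sec for 10 min. Before substrate is added, enzyme sits with varying inhibitor concentrations for 10 min at room temperature. Ki comes from these cleavage profiles.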

KP1009 (CTX-M-15) [16] = experiment: organism not typed; assay type: cell-based
ec308 (SHV-5) [17] = experiment: Aztreonam potentiation (MPC@4), ec308; assay type: cell-based; conditions: BLI with aztreonam at 4 μg/mL
PAM1032/KPC-2 = experiment: Biapenem potentiation MPC64, PAM1032/KPC-2 (efflux proficient); assay type: cell-based, Pseudomonas aeruginosa; conditions: BLI to decrease MIC of biapenem 64-fold; MexAB-OprM overexpressed
Method: Efflux of BLIs from Pseudomonas aeruginosa by the MexAB-OprM efflux pump was also evaluated. […] Due to expression of KPC-2 both strains became resistant to biapenem. […] Potency of BLIs to potentiate biapenem in these strains was determined. […] The ratio of MPC64 values for each BLI in PAM1032/KPC-2 (efflux proficient) and PAM1154/KPC-2 (efflux deficient) was determined to generate the Efflux Index (EI).

KP1010 (SHV-12) [18] = experiment: Aztreonam potentiation (MPC@4), KP1010; assay type: cell-based

| Compound | AZT MPC4 TEM-10 ec302 (ec302 (TEM-10) [1]) | AZT MPC4 ECL1002 (ECL1002 [3]) | BPM MPC1 OXA-48 KP1086 (KP1086 (OXA-48)) | Ki (SHV-12) | Ki (CTX-M-14) | % Monomer in 1 mg/mL salt solution [5] | TIG MPC4 CTX-M-14 KP1005 (KP1005 (CTX-M-14) [7]) | TIG MPC4 CTX-M-15 KP1009 (KP1009 (CTX-M-15) [8]) | TIG MPC4 ECL1002 (ECL1002 [9]) | Ki (KPC-2) | BPM MPC1 KP1004 KPC-2 (KP1004 (KPC-2) [10]) | Ki (P99) | Ki (OXA-48) | clearance [11] | TIG MPC4 CMY-6 EC1010 (EC1010 (CMY-6) [12]) | TIG MPC4 SHV-12 KP1010 (KP1010 (SHV-12) [2]) | TIG MPC4 SHV-5 ec308 (ec308 (SHV-5) [4]) | TIG MPC4 TEM-10 ec302 (ec302 (TEM-10) [6]) | AZT MPC4 CMY-6 EC1010 (EC1010 (CMY-6) [15]) | also measured |
| --- | --- | --- | --- | --- | --- | --- | --- | --- | --- | --- | --- | --- | --- | --- | --- | --- | --- | --- | --- | --- |
| CSCC(=O)N[C@H]1Cc2ccc(F)c(C(=O)O)c2OB1O [Compound 1, (R)-7-fluoro-2-hydroxy-3-(2-(methylthio)acetamido)-3,4-dihydro-2H-benzo[e][1,2]oxaborinine-8-carboxylic acid] | Y (MIC of 1 μg/mL to 10 μg/mL) | Y (MIC of 1 μg/mL to 10 μg/mL) | Y (MIC of 1 μg/mL to 10 μg/mL) | < 1 nM | < 1 nM | 98.0% | X (MIC of less than 1 μg/mL) | X (MIC of less than 1 μg/mL) | X (MIC of less than 1 μg/mL) | > 10 nM | X (MIC of less than 1 μg/mL) | > 10 nM | > 10 nM | 14.2 mL/min/kg | X (MIC of less than 1 μg/mL) | – | – | – | – | TIG MPC4 SHV-12 KP1010 (KP1010 (SHV-12) [2]; BLI with tigemonam at 4 μg/mL): X (MIC of less than 1 μg/mL); TIG MPC4 SHV-5 ec308 (ec308 (SHV-5) [4]; BLI with tigemonam at 4 μg/mL): X (MIC of less than 1 μg/mL); % Monomer in 10 mg/mL salt solution ([5]; 10 mg/mL aqueous salt solution): 97.5%; % Monomer in 100 mg/mL salt solution ([5]; 100 mg/mL aqueous salt solution): 96.4%; TIG MPC4 TEM-10 ec302 (ec302 (TEM-10) [6]; BLI with tigemonam at 4 μg/mL): Y (MIC of 1 μg/mL to 10 μg/mL) |
| O=C(CSC(F)F)N[C@H]1Cc2ccc(F)c(C(=O)O)c2OB1O [Compound 3, (R)-3-(2-(difluoromethylthio)acetamido)-7-fluoro-2-hydroxy-3,4-dihydro-2H-benzo[e][1,2]oxaborinine-8-carboxylic acid] | X (MIC of less than 1 ng/mL) | Y (MIC of 1 μg/mL to 10 μg/mL) | Z (MIC of greater than 10 μg/mL) | < 1 nM | < 1 nM | 99.8% | X (MIC of less than 1 μg/mL) | X (MIC of less than 1 μg/mL) | Y (MIC of 1 μg/mL to 10 μg/mL) | > 10 nM | X (MIC of less than 1 μg/mL) | > 10 nM | 1 to 10 nM | 13 mL/min/kg | X (MIC of less than 1 μg/mL) | X (key: X: MIC of less than 1 μg/mL; Y: MIC of 1 μg/mL to 10 μg/mL; Z: MIC of greater than 10 μg/mL) | X (key: X: MIC of less than 1 μg/mL; Y: MIC of 1 μg/mL to 10 μg/mL; Z: MIC of greater than 10 μg/mL) | Y (key: X: MIC of less than 1 ng/mL; Y: MIC of 1 μg/mL to 10 μg/mL; Z: MIC of greater than 10 μg/mL) | Y (key: X: MIC of less than 1 ng/mL; Y: MIC of 1 μg/mL to 10 μg/mL; Z: MIC of greater than 10 μg/mL) | AZT MPC4 KPC-2 KP1004 (KP1004 (KPC-2) [13]): Y (MIC of 1 μg/mL to 10 μg/mL); AZT MPC4 CTX-M-14 KP1005 (KP1005 (CTX-M-14) [14]): Y (MIC of 1 μg/mL to 10 μg/mL); Ki (Pa AmpC): > 10 nM |
| O=C(Cc1cccs1)N[C@H]1Cc2cccc(C(=O)O)c2OB1O [I, reference compound] | – | – | Y (MIC of 1 μg/mL to 10 μg/mL) | – | – | – | Y (MIC of 1 μg/mL to 10 μg/mL) | Y (MIC of 1 μg/mL to 10 μg/mL) | X (MIC of less than 1 μg/mL) | – | X (MIC of less than 1 μg/mL) | – | – | 136 mL/min/kg | – | X (key: X: MIC of less than 1 μg/mL; Y: MIC of 1 μg/mL to 10 μg/mL; Z: MIC of greater than 10 μg/mL) | X (key: X: MIC of less than 1 μg/mL; Y: MIC of 1 μg/mL to 10 μg/mL; Z: MIC of greater than 10 μg/mL) | Z (key: X: MIC of less than 1 ng/mL; Y: MIC of 1 μg/mL to 10 μg/mL; Z: MIC of greater than 10 μg/mL) | Y (key: X: MIC of less than 1 ng/mL; Y: MIC of 1 μg/mL to 10 μg/mL; Z: MIC of greater than 10 μg/mL) | AZT MPC4 CTX-M-15 KP1009 (KP1009 (CTX-M-15) [16]): Y (key: X: MIC of less than 1 ng/mL; Y: MIC of 1 μg/mL to 10 μg/mL; Z: MIC of greater than 10 μg/mL); AZT MPC4 SHV-5 ec308 (ec308 (SHV-5) [17]): X (MIC of less than 1 ng/mL); PAM1032/KPC-2 Biapenem MPC64 (PAM1032/KPC-2): 80; AZT MPC4 SHV-12 KP1010 (KP1010 (SHV-12) [18]): X (key: X: MIC of less than 1 ng/mL; Y: MIC of 1 μg/mL to 10 μg/mL; Z: MIC of greater than 10 μg/mL) |
